According to PMC12527922, “Cocaine chemogenetics blunts drug-seeking by synthetic physiology” (Nature, 2025):
Where “and” joins values, the source holds several entries; their conditions need not be identical. Equal values may be shown once. Read-outs that look alike come from different tables or passages of the source.

Assays:
[1] = biological target: T1, coca-GlyR (α7(L141G,G175K,Y217F)–GlyR) (Homo sapiens, UniProt P23415+P36544, G175K/L141G/Y217F); assay: Membrane potential assay, coca-GlyR in HEK293; assay type: cell-based
T1 construct: expressed in transfected cells; host or cells: HEK293 (ATCC CRL-1573), pcDNA3.1

[2] = test system: α7–5HT3 mutant chimeric channels; assay: cell-based; assay type: cell-based, human α7 nAChR LBD, mouse 5HT3 IPD; details: for EC50: sheet 1e
[3] = biological target: T2, unmodified α7–5HT3 (UniProt P23979+P36544, M226I/T225I); assay: Membrane potential assay, unmodified α7–5HT3; assay type: cell-based, human α7 nAChR LBD, mouse 5HT3 IPD
T2 construct: expressed in transfected cells; host or cells: HEK293 (ATCC CRL-1573), pcDNA3.1

[4] = biological target: T3, unmodified α7–GlyR (Homo sapiens, UniProt P23415+P36544); assay: Membrane potential assay, unmodified α7–GlyR; assay type: cell-based; details: sheet 1d
T3 construct: expressed in transfected cells; host or cells: HEK293 (ATCC CRL-1573), pcDNA3.1

[5] = test system: coca-5HT3; assay: Whole-cell voltage-clamp in HEK293 cells, coca-5HT3; assay type: cell-based, human α7 nAChR LBD, mouse 5HT3 IPD
Description: Channel mutants and agonists were further characterized in whole-cell voltage-clamp experiments performed on HEK293 cells. At passage 44–48, cells were plated at low density (1 × 10^3 per cm^2) on poly-D-lysine-coated glass coverslips, then transfected in 10 cm^2 wells using the Fugene 6 transfection reagent (Roche) with DNA plasmids containing both an ion channel cDNA (pcDNA3.1, 2 µg per well) and cDNA for GFP (pCMV, 0.1 μg per well), followed by replacement of the medium after 3 h. Recordings were made 24–72 h after transfection.
Electrophysiological recordings were performed in whole-cell voltage-clamp mode, on an inverted fluorescence microscope (Olympus IX-51) using pClamp software and a […] amplifier (Molecular Devices). Electrophysiological data was filtered at 4 kHz, digitized at 10 kHz using a Digidata 1400 interface (Molecular Devices), recorded on a PC (Dell) and analysed using custom MATLAB software (MathWorks). Solutions were delivered from a gravity fed perfusion system through a capillary tube placed approximately […] from the recorded cell using an eight-way manifold pinch valve system (Nanion), which was controlled from the acquisition software. This allowed for up to seven concentrations of agonist to be tested. […]

[6] = screen of chimeric α7–5HT3 and α7–GlyR single LBD mutants (Fig. 1d)

T2 sequence (P36544+P23979 fused P36544:T225I/P36544:M226I): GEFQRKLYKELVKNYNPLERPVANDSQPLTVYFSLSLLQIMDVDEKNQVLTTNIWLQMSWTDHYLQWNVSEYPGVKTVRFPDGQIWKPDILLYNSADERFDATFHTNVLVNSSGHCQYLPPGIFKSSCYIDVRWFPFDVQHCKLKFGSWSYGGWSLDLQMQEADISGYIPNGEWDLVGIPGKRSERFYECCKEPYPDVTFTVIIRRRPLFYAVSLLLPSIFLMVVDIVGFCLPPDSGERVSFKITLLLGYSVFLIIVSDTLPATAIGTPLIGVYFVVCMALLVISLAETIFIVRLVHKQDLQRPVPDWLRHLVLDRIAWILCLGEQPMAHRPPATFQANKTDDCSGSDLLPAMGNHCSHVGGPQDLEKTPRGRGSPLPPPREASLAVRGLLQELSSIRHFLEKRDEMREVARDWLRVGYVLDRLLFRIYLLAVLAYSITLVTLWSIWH
T3 sequence (P36544+P23415 fused): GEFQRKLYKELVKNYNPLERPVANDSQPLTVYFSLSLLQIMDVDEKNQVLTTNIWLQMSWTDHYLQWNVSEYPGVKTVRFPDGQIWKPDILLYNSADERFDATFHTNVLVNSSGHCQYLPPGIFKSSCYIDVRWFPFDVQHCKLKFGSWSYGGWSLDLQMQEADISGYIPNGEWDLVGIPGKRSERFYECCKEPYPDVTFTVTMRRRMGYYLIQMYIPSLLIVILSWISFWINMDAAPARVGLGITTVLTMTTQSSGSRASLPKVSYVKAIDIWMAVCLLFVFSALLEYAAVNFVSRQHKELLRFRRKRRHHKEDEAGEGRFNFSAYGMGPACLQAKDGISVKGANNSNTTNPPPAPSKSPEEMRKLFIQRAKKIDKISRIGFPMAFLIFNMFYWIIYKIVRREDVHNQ
T1 sequence (P36544+P23415 fused P36544:L141G/P36544:G175K/P36544:Y217F): as the sequence (P36544+P23415 fused) above, with L119G, G153K, Y195F counted along it

COC(=O)[C@H]1[C@@H](OC(=O)c2ccccc2)C[C@@H]2CC[C@H]1N2C [cocaine]
EC50 [1]: 1200 ± 100 nM
agonism at Leu141Gly or Leu141Ala mutant channels [2, 6]: marked induction of cocaine agonism
agonist activity at Trp77Phe and Leu131Asn mutant channels [2, 6]: some cocaine agonist activity
EC50 ([2]; AVG, read-out: EC50 at a75HT3 L141G G175K Y115F, AVG): 4780 nM
EC50 ([2]; AVG, read-out: EC50 at a75HT3 L141G G175K Y210F, AVG): 2270 nM
EC50 ([2]; AVG, read-out: EC50 at a75HT3 L141G G175K Y217F, AVG): 715 nM
EC50 ([2]; AVG, read-out: EC50 at a75HT3 L141G G175K, AVG): 315 nM
EC50 ([2]; AVG, read-out: EC50 at a75HT3 L141G, AVG): 2350 nM
EC50 ([2]; single determinations, read-out: EC50 at a75HT3 L141G): 2350 nM
EC50 ([2]; single determinations, read-out: EC50 at a75HT3 L141G G175K): 390 nM and 240 nM
EC50 ([2]; single determinations, read-out: EC50 at a75HT3 L141G G175K Y217F): 800 nM and 630 nM
EC50 at a75HT3 unmodified, AVG ([3]; sheet 1e, AVG): 30000 nM
EC50 at a75HT3 unmodified ([3]; sheet 1e, single determinations): 30000 nM
EC50 at α7-5HT3, Avg ([3]; sheet 1d, Avg): 30000 nM
EC50 at α7-5HT3 ([3]; sheet 1d, single determinations): 30000 nM
EC50 at α7-GlyR, Avg ([4]; Avg): 30000 nM
EC50 at α7-GlyR ([4]; single determinations): 30000 nM
currents from coca-5HT3 [5]: robust cocaine-activated currents
